Measurements taken from patent publication US20230022157A1 (Achillion Pharmaceuticals, Inc., priority 2018, published 2023).

Target: T1, Human Factor D (Homo sapiens, UniProt P00746)
T1 construct: purified from human serum; purchased Complement Technology, Inc; host or cells: human serum (natural protein, not recombinant)
Assay: Human Factor D Assay
Type: biochemical
Conditions: Human Factor D 80 nM, substrate Z-L-Lys-SBzl, assay of Example 3; read-out: IC50 (Stars)
Summary of the method: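 Serum-purified human factor D (80 nM final) preincubated 5 min at room temperature with test compound in 50 mM Tris, 1M NaCl, pH 7.5. Z-L-Lys-SBzl substrate and DTNB then added, each at 100 μM final. IC50 from nonlinear regression of reaction rate against compound concentration.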

T1 sequence (P00746 26-253): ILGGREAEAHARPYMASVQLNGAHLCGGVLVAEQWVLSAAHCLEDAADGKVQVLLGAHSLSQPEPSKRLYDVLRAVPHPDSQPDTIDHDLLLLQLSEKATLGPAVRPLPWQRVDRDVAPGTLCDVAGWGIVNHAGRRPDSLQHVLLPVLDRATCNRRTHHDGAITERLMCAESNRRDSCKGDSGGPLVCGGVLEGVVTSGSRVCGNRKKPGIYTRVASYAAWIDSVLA

| IC50 [µM] | SMILES |
| --- | --- |
| < 1 | CC(=O)c1nn(CC(=O)N2[C@H](C(=O)Nc3nc(Br)ccc3C)C[C@@]3(CO)C[C@@H]23)c2c(C)cc(-c3cnc(C)nc3)cc12 [Compound 21, (1R,3S,5S)-2-(2-(3-Acetyl-7-methyl-5-(2-methylpyrimidin-5-yl)-1H-indazol-1-yl)acetyl)-N-(6-bromo-3-methylpyridin-2-yl)-5-(hydroxymethyl)-2-azabicyclo[3.1.0]hexane-3-carboxamide] |
| < 1 | CC(=O)c1nn(CC(=O)N2[C@H](C(=O)NCCc3ccccc3Cl)C[C@@]3(C)C[C@@H]23)c2c(C)cc(-c3cnc(C)nc3)cc12 [Compound 3, (1R,3S,5R)-2-(2-(3-Acetyl-7-methyl-5-(2-methylpyrimidin-5-yl)-1H-indazol-1-yl)acetyl)-N-(2-chlorophenethyl)-5-methyl-2-azabicyclo[3.1.0]hexane-3-carboxamide] |
| < 1 | CC(=O)c1nn(CC(=O)N2[C@H](C(=O)Nc3cccc(C(F)(F)F)c3F)C[C@@]3(C)C[C@@H]23)c2ccc(-c3cnc(C)nc3)cc12 [Compound 24, (1R,3S,5R)-2-(2-(3-Acetyl-5-(2-methylpyrimidin-5-yl)-1H-indazol-1-yl)acetyl)-N-(2-fluoro-3-(trifluoromethyl)phenyl)-5-methyl-2-azabicyclo[3.1.0]hexane-3-carboxamide] |

| SMILES | IC50 [µM] |
| --- | --- |
| CC(=O)c1nn(CC(=O)N2[C@H](C(=O)NCCc3ccccc3F)C[C@@]3(C)C[C@@H]23)c2c(C)cc(-c3cnc(C)nc3)cc12 [Compound 1, (1R,3S,5R)-2-(2-(3-Acetyl-7-methyl-5-(2-methylpyrimidin-5-yl)-1H-indazol-1-yl)acetyl)-N-(2-fluorophenethyl)-5-methyl-2-azabicyclo[3.1.0]hexane-3-carboxamide] | < 1 |

Same assay, conditions: Human Factor D 80 nM, substrate Z-L-Lys-SBzl; Table 2; read-out: IC50 (Stars)

| SMILES | IC50 [µM] |
| --- | --- |
| CC(=O)c1cn(CC(=O)N2[C@H](C(=O)Nc3nc(Br)c(F)cc3C)C[C@@]3(C)C[C@@H]23)c2c(C3CC3)cc(-c3cnc(C)nc3)cc12 [Compound 162] | < 1 |
| CC(=O)c1nn(CC(=O)N2[C@H](C(=O)N[C@@H](C)c3ccc4c(c3)CCCC4)C[C@@]3(C)C[C@@H]23)c2c(C)cc(-c3cnc(C)nc3)cc12 [Compound 151, (1R,3S,5R)-2-{2-[3-acetyl-7-methyl-5-(2-methylpyrimidin-5-yl)indazol-1-yl]acetyl}-5-methyl-N-[(1S)-1-(5,6,7,8-tetrahydronaphthalen-2-yl)ethyl]-2-azabicyclo[3.1.0]hexane-3-carboxamide] | 1 to 10 |
| CC(=O)c1nn(CCN2C[C@H](F)C[C@H]2C(=O)Nc2cccc(Br)n2)c2ccc(-c3cnc(C)nc3)cc12 [Compound 139, (2S,4R)-1-(2-(3-acetyl-5-(2-methylpyrimidin-5-yl)-1H-indazol-1-yl)ethyl)-N-(6-bromopyridin-2-yl)-4-fluoropyrrolidine-2-carboxamide] | > 10 |
| CC(=O)c1cn(CC(=O)N2[C@H](C(=O)Nc3cc(F)cc(Br)n3)C[C@@]3(C)C[C@@H]23)c2c(C)cc(-c3cnc(C)nc3)cc12 [Compound 192, (1R,3S,5R)-2-(2-(3-acetyl-7-methyl-5-(2-methylpyrimidin-5-yl)-1H-indol-1-yl)acetyl)-N-(6-bromo-4-fluoropyridin-2-yl)-5-methyl-2-azabicyclo[3.1.0]hexane-3-carboxamide] | < 1 |
| CC(=O)c1cn(CC(=O)N2[C@H](C(=O)Nc3nc(Br)ccc3C)C[C@@]3(C)C[C@@H]23)c2c(C)cc(-c3cnc(C(C)F)nc3)cc12 (stereo partly drawn) [Compound 216, (1R,3S,5R)-2-(2-(3-acetyl-5-(2-(1-fluoroethyl)pyrimidin-5-yl)-7-methyl-1H-indol-1-yl)acetyl)-N-(6-bromo-3-methylpyridin-2-yl)-5-methyl-2-azabicyclo[3.1.0]hexane-3-carboxamide] | < 1 |
| CC(=O)c1nn(CC(=O)N2[C@H](C(=O)Nc3cncc(Br)n3)C[C@@]3(C)C[C@@H]23)c2c(C)cc(-c3cnc(CO)nc3)cc12 [Compound 48, (1R,3S,5R)-2-(2-(3-acetyl-5-(2-(hydroxymethyl)pyrimidin-5-yl)-7-methyl-11H-indazol-1-yl)acetyl)-N-(6-bromopyrazin-2-yl)-5-methyl-2-azabicyclo[3.1.0]hexane-3-carboxamide] | < 1 |
| COCCOC[C@@]12C[C@@H](C(=O)Nc3nc(Br)ccc3C)N(C(=O)Cn3nc(C(C)=O)c4cc(-c5cnc(C)nc5)cc(C)c43)[C@@H]1C2 [Compound 107, (1R,3S,5S)-2-(2-(3-acetyl-7-methyl-5-(2-methylpyrimidin-5-yl)-1H-indazol-1-yl)acetyl)-N-(6-bromo-3-methylpyridin-2-yl)-5-((2-methoxyethoxy)methyl)-2-azabicyclo[3.1.0]hexane-3-carboxamide] | < 1 |
| CC(=O)c1nn(CC(=O)N2C[C@H]3C[C@H]3[C@H]2C(=O)Nc2nc(Br)ccc2C)c2c(C)cc(-c3cnc(C(C)O)nc3)cc12 (stereo partly drawn) [Compound 164, (1R,2S,5S)-3-(2-(3-acetyl-5-(2-(1-hydroxyethyl)pyrimidin-5-yl)-7-methyl-1H-indazol-1-yl)acetyl)-N-(6-bromo-3-methylpyridin-2-yl)-3-azabicyclo[3.1.0]hexane-2-carboxamide] | < 1 |
| CC(=O)c1ncc(-c2cc(C)c3c(c2)c(C(C)=O)nn3CC(=O)N2[C@H](C(=O)Nc3nc(Br)ccc3C)C[C@@]3(C)C[C@@H]23)cn1 [Compound 58] | < 1 |
| CC(=O)c1nn(CC(=O)N2[C@H](C(=O)Nc3nc(Br)ccc3C)C[C@@]3(C)C[C@@H]23)c2c(C)cc(-c3cnc(C(C)O)nc3)cc12 (stereo partly drawn) [Compound 95, (1R,3S,5R)-2-(2-(3-acetyl-5-(2-(1-hydroxyethyl)pyrimidin-5-yl)-7-methyl-1H-indazol-1-yl)acetyl)-N-(6-bromo-3-methylpyridin-2-yl)-5-methyl-2-azabicyclo[3.1.0]hexane-3-carboxamide] | < 1 |

Now from value to molecule:

| IC50 [µM] | SMILES |
| --- | --- |
| < 1 | CC(=O)c1cn(CC(=O)N2[C@H](C(=O)Nc3nc(Br)c(F)cc3C)C[C@@]3(C)C[C@@H]23)c2ccc(-c3cnc4cc(C)nn4c3)cc12 [Compound 211, (1R,3S,5R)-2-(2-(3-acetyl-5-(2-methylpyrazolo[1,5-a]pyrimidin-6-yl)-1H-indol-1-yl)acetyl)-N-(6-bromo-5-fluoro-3-methylpyridin-2-yl)-5-methyl-2-azabicyclo[3.1.0]hexane-3-carboxamide] |
| < 1 | CC(=O)c1cn(CC(=O)N2[C@H](C(=O)Nc3cncc(Br)n3)C[C@@]3(C)C[C@@H]23)c2c(C)cc(-c3cnc(C(C)O)nc3)cc12 (stereo partly drawn) [Compound 159, (1R,3S,5R)-2-(2-(3-acetyl-5-(2-(1-hydroxyethyl)pyrimidin-5-yl)-7-methyl-1H-indol-1-yl)acetyl)-N-(6-bromopyrazin-2-yl)-5-methyl-2-azabicyclo[3.1.0]hexane-3-carboxamide] |
| < 1 | CC(=O)c1cn(CC(=O)N2[C@H](C(=O)Nc3nc(Br)c(F)cc3C)C[C@@]3(C)C[C@@H]23)c2c(C)cc(-c3cnc(C)nc3)cc12 [Compound 144, (1R,3S,5R)-2-(2-(3-acetyl-7-methyl-5-(2-methylpyrimidin-5-yl)-1H-indol-1-yl)acetyl)-N-(6-bromo-5-fluoro-3-methylpyridin-2-yl)-5-methyl-2-azabicyclo[3.1.0]hexane-3-carboxamide] |
| < 1 | CC(=O)c1cn(CC(=O)N2[C@H](C(=O)Nc3nc(C(F)(F)F)ccc3C)C[C@@]3(C)C[C@@H]23)c2c(C)cc(-c3cnc4cc(CF)nn4c3)cc12 [Compound 228, (1R,3S,5R)-2-(2-(3-acetyl-5-(2-(fluoromethyl)pyrazolo[1,5-a]pyrimidin-6-yl)-7-methyl-1H-indol-1-yl)acetyl)-5-methyl-N-(3-methyl-6-(trifluoromethyl)pyridin-2-yl)-2-azabicyclo[3.1.0]hexane-3-carboxamide] |
| < 1 | CC(=O)c1cn(CC(=O)N2[C@H](C(=O)Nc3nc(C(F)(F)F)ccc3C)C[C@@]3(C)C[C@@H]23)c2c(C)cc(-c3cnc(C)c(C)n3)cc12 [Compound 222, (1R,3S,5R)-2-(2-(3-acetyl-5-(5,6-dimethylpyrazin-2-yl)-7-methyl-1H-indol-1-yl)acetyl)-5-methyl-N-(3-methyl-6-(trifluoromethyl)pyridin-2-yl)-2-azabicyclo[3.1.0]hexane-3-carboxamide] |
| < 1 | COC(=O)c1ncc(-c2cc(C)c3c(c2)c(C(C)=O)nn3CC(=O)N2[C@H](C(=O)Nc3cncc(Br)n3)C[C@@]3(C)C[C@@H]23)cn1 [Compound 42, Methyl 5-(3-acetyl-1-(2-((1R,3S,5R)-3-((6-bromopyrazin-2-yl)carbamoyl)-5-methyl-2-azabicyclo[3.1.0]hexan-2-yl)-2-oxoethyl)-7-methyl-1H-indazol-5-yl)pyrimidine-2-carboxylate] |
| < 1 | COc1ncc(-c2cc(C)c3c(c2)c(C(C)=O)nn3CC(=O)N2[C@H](C(=O)Nc3nc(Br)ccc3C)C[C@@]3(C)C[C@@H]23)cn1 [Compound 52, (1R,3S,5R)-2-(2-(3-acetyl-5-(2-methoxypyrimidin-5-yl)-7-methyl-1H-indazol-1-yl)acetyl)-N-(6-bromo-3-methylpyridin-2-yl)-5-methyl-2-azabicyclo[3.1.0]hexane-3-carboxamide] |
| < 1 | CC(=O)c1nn(CC(=O)N2C[C@H]3C[C@H]3[C@H]2C(=O)Nc2nc(Br)c(F)cc2C)c2c(C)cc(-c3cnc(C(C)O)nc3)cc12 (stereo partly drawn) [Compound 165, (1R,2S,5S)-3-(2-(3-acetyl-5-(2-(1-hydroxyethyl)pyrimidin-5-yl)-7-methyl-1H-indazol-1-yl)acetyl)-N-(6-bromo-5-fluoro-3-methylpyridin-2-yl)-3-azabicyclo[3.1.0]hexane-2-carboxamide] |
| < 1 | CC(=O)c1nn(CC(=O)N2[C@H](C(=O)Nc3nc(C(C)(F)F)ccc3C)C[C@@]3(C)C[C@@H]23)c2c(C)cc(-c3cnc(C)nc3)cc12 [Compound 130, (1R,3S,5R)-2-(2-(3-Acetyl-7-methyl-5-(2-methylpyrimidin-5-yl)-1H-indazol-1-yl)acetyl)-N-(6-(1,1-difluoroethyl)-3-methylpyridin-2-yl)-5-methyl-2-azabicyclo[3.1.0]hexane-3-carboxamide] |
